{"source": "paper PMC6315591", "about": "(Marine Drugs, 2018)", "origin": "cited, not measured here", "test_system": "muscle nAChR on BC3H-1 cells"}
{"substance": "α-conotoxin MI", "values": [{"measurement": "greater affinity at the α/δ versus α/γ interface", "value": "10,000 fold"}]}
